Measurements published in patent US20130131161A1, “METHODS AND COMPOSITIONS FOR CARDIOVASCULAR DISEASES AND CONDITIONS” (priority 2009, published 2013).

System: Human umbilical vein endothelial cells (HUVECs)
Assay: eNOS activity analysis: NO, ONOO− and NO/ONOO− release from HUVECs of 50 genotyped donors in response to LA-419 (Example 2)
Assay type: cell-based
Conditions: for Fold difference NO (mean ± sd) / Fold difference NO/ONOO− (mean ± sd) / Fold difference ONOO− (mean ± sd): (LA-419 1 μM)/(control)
Protocol: Concurrent measurements of NO and ONOO^− were carried out with tandem electrochemical nanosensors combined into one working unit with a total diameter of 200-500 nm (FIG. 1). Their design was based on previously developed and well-characterized chemically modified carbon-fiber technology (Malinski and Taha, 1992; Lvovich and Scheeline, 1997). Each of the nanosensors was made by depositing a sensing material on the tip of a carbon fiber (length 4-5 μm, diameter 0.2-0.5 μm). The fibers were sealed with nonconductive epoxy and electrically connected to copper wires with conductive silver epoxy. A conductive film of polymeric nickel (II) tetrakis(3-methoxy-4-hydroxyphenyl)porphyrin for the NO-sensor and polymeric film of Mn (III) [2.2]paracyclophanylporphyrin was used for the ONOO^−-sensor.
A module of NO/ONOO^− nanosensors (diameter 1-2 μm) with a platinum wire (0.1 mm) counter electrode and saturated calomel reference electrode (SCE) were applied. Differential pulse voltammetry (DPV) and amperometry were performed with a computer-based Gamry VFP600 multichannel potentiostat. DPV was used to measure the basal NO and ONOO^− concentrations, and amperometry was used to measure changes in NO and ONOO^− concentrations from its basal level with time. The DPV current at the peak potential characteristic for NO oxidation (0.65 V) and ONOO^− reduction (−0.45 V) was directly proportional to the local concentrations of these compounds in the immediate vicinity of the sensor. Linear calibration curves (current vs. concentration) were constructed for each sensor from 10 nM to 3 μM before and after measurements with aliquots of NO and ONOO^− standard solutions, respectively. The detection limit of the sensors was 1.0 nM.
The quantification of each analyte (concentration in nM) was performed using a maximum current from amperograms and standard calibration curves. A reproducibility of measurements with nanosensors is relatively high (between 5-12%). […] The sensors were slowly raised 5±2 μm from the surface of a single endothelial cell. The eNOS agonist, calcium ionophore A23187 (CaI) as well as the different drugs were then added to the surrounding media at the cell surface with a nanoinjector that was also positioned by a computer controlled-micromanipulator.
This example describes the genotype-specific response of the three major eNOS variants to 1 μM and 5 μM concentrations of LA-419. The three major genetic polymorphisms studied were the Glu298Asp variant (E298D or 894G→T) in exon 7 of […], the −786T→C variant in the promoter region, and the intron 4 polymorphism (VNTR). All of these variants have possible effects on the cardiovascular system and endothelial dysfunction. For this study, human umbilical vein endothelial cells (HUVECs) from 50 donors between 18 and 32 years of age were used.
For the analysis several analysis techniques were employed. First, the effect of genotype on NO and ONOO^− release was explored within the different concentrations of LA-419 (control, 1 μM, 5 μM), calculated as the average peak release (nmols/L) of NO, ONOO^−, and NO/ONOO^−. The effect of genotype on the net increase in NO, ONOO^−, and NO/ONOO^− for LA-419 (1 μM and 5 μM) as compared to control was also measured. In addition, an analysis was done on the effect of genotype on the % change in NO, ONOO^−, and NO/ONOO^− production for LA-419 (1 μM and 5 μM), calculated as:
% Change=[(avg. LA-419−avg. control)/(avg. control)]*100
Finally, an evaluation was undertaken concerning the effect of genotype on the production of NO, ONOO^−, and NO/ONOO^− as the fold difference of control for LA-419 (1 μM and 5 μM), calculated as:
Fold Difference=(avg. LA-419)/(avg. control)
Within each calculation technique the results were compared for statistical significance using a non-parametric ANOVA Kruskal-Wallace test or a non-parametric Mann-Whitney U test. Statistical significance was set at a p-value <0.05 in a two-tailed distribution. […]

[1] = 1 μM LA-419, Intron 4 variant b/a, a/a, c/c (n=14)
[2] = 1 μM LA-419, Intron 4 variant b/b (n=31)
[3] = 5 μM LA-419, Intron 4 variant b/a, a/a, c/c (n=14)
[4] = 5 μM LA-419, Intron 4 variant b/b (n=31)
[5] = Combination of all G894T + T-786C genotypes but G/G + T/T, n=31
[6] = Combination of all G894T + T-786C genotypes but T/T + C/C, n=46

SMILES: CC(=O)SC1COC2C(O[N+](=O)[O-])COC12 (stereo not drawn) [LA-419, S-(6-Nitro-oxi-hexahydro-furo[3,2-b]furan-3-1-il)thioacetate]
- NO % Change (mean ± sd) [1]: 11.76 (29.57) %
- NO/ONOO− % Change (mean ± sd) [1]: 28.01 (62.22) %
- ONOO− % Change (mean ± sd) [1]: −2.68 (29.78) %
- NO % Change (mean ± sd) [2]: 13.46 (23.13) %
- NO/ONOO− % Change (mean ± sd) [2]: 43.27 (71.09) %
- ONOO− % Change (mean ± sd) [2]: −10.24 (27.17) %
- NO % Change (mean ± sd) [3]: 16.16 (6.09) %
- NO/ONOO− % Change (mean ± sd) [3]: 44.37 (12.85) %
- ONOO− % Change (mean ± sd) [3]: −19.27 (5.27) %
- NO % Change (mean ± sd) [4]: 13.52 (6.80) %
- NO/ONOO− % Change (mean ± sd) [4]: 42.24 (17.73) %
- ONOO− % Change (mean ± sd) [4]: −19.19 (7.76) %
- Fold difference NO (mean ± sd) [5]: 1.14 (0.26)
- Fold difference NO/ONOO− (mean ± sd) [5]: 1.41 (0.71)
- Fold difference ONOO− (mean ± sd) [5]: 0.92 (0.30)
- Fold difference NO (mean ± sd) [6]: 1.13 (0.25)
- Fold difference NO/ONOO− (mean ± sd) [6]: 1.37 (0.68)
- Fold difference ONOO− (mean ± sd) [6]: 0.93 (0.28)
- Fold difference NO (mean ± sd) (G894T + T-786C G/G + T/C, n=8): 1.03 (0.17)
- Fold difference NO/ONOO− (mean ± sd) (G894T + T-786C G/G + T/C, n=8): 1.07 (0.37)
- Fold difference ONOO− (mean ± sd) (G894T + T-786C G/G + T/C, n=8): 1.07 (0.36)
- Fold difference NO (mean ± sd) (G894T + T-786C G/G + T/T, n=18): 1.10 (0.20)
- Fold difference NO/ONOO− (mean ± sd) (G894T + T-786C G/G + T/T, n=18): 1.28 (0.57)
- Fold difference ONOO− (mean ± sd) (G894T + T-786C G/G + T/T, n=18): 0.94 (0.23)
- Fold difference NO (mean ± sd) (G894T + T-786C G/T + C/C, n=1): 0.86 (0)
- Fold difference NO/ONOO− (mean ± sd) (G894T + T-786C G/T + C/C, n=1): 0.49 (0)
- Fold difference ONOO− (mean ± sd) (G894T + T-786C G/T + C/C, n=1): 1.77 (0)
- Fold difference NO (mean ± sd) (G894T + T-786C G/T + T/C, n=13): 1.28 (0.33)
- Fold difference NO/ONOO− (mean ± sd) (G894T + T-786C G/T + T/C, n=13): 1.70 (0.81)
- Fold difference ONOO− (mean ± sd) (G894T + T-786C G/T + T/C, n=13): 0.81 (0.15)
- Fold difference NO (mean ± sd) (G894T + T-786C G/T + T/T, n=4): 1.08 (0.03)
- Fold difference NO/ONOO− (mean ± sd) (G894T + T-786C G/T + T/T, n=4): 1.12 (0.18)
- Fold difference ONOO− (mean ± sd) (G894T + T-786C G/T + T/T, n=4): 0.98 (0.18)
- Fold difference NO (mean ± sd) (G894T + T-786C T/T + C/C, n=1): 1.02 (0)
- Fold difference NO/ONOO− (mean ± sd) (G894T + T-786C T/T + C/C, n=1): 1.23 (0)
- Fold difference ONOO− (mean ± sd) (G894T + T-786C T/T + C/C, n=1): 0.83 (0)
- Fold difference NO (mean ± sd) (G894T + T-786C T/T + C/C, n=3): 1.07 (0.06)
- Fold difference NO/ONOO− (mean ± sd) (G894T + T-786C T/T + C/C, n=3): 1.20 (0.04)
- Fold difference ONOO− (mean ± sd) (G894T + T-786C T/T + C/C, n=3): 0.89 (0.06)
- Fold difference NO (mean ± sd) (G894T + T-786C T/T + T/C, n=2): 1.11 (0.36)
- Fold difference NO/ONOO− (mean ± sd) (G894T + T-786C T/T + T/C, n=2): 2.25 (1.17)
- Fold difference ONOO− (mean ± sd) (G894T + T-786C T/T + T/C, n=2): 0.52 (0.11)
- Fold difference NO (mean ± sd) (G894T G/G & G/T, n=44): 1.13 (0.25)
- Fold difference NO/ONOO− (mean ± sd) (G894T G/G & G/T, n=44): 1.34 (0.64)
- Fold difference ONOO− (mean ± sd) (G894T G/G & G/T, n=44): 0.95 (0.27)
- Fold difference NO (mean ± sd) (G894T G/G, n=26): 1.08 (0.19)
- Fold difference NO/ONOO− (mean ± sd) (G894T G/G, n=26): 1.22 (0.52)
- Fold difference ONOO− (mean ± sd) (G894T G/G, n=26): 0.98 (0.27)
- Fold difference NO (mean ± sd) (G894T G/T & T/T, n=23): 1.18 (0.28)
- Fold difference NO/ONOO− (mean ± sd) (G894T G/T & T/T, n=23): 1.53 (0.77)
- Fold difference ONOO− (mean ± sd) (G894T G/T & T/T, n=23): 0.87 (0.26)
- Fold difference NO (mean ± sd) (G894T G/T, n=18): 1.21 (0.30)
- Fold difference NO/ONOO− (mean ± sd) (G894T G/T, n=18): 1.50 (0.77)
- Fold difference ONOO− (mean ± sd) (G894T G/T, n=18): 0.90 (0.27)
- Fold difference NO/ONOO− (mean ± sd) (G894T T/T, n=5): 1.62 (0.82)
- Fold difference ONOO− (mean ± sd) (G894T T/T, n=5): 0.75 (0.21)
- Fold difference NO (mean ± sd) (Intron 4 a/a, n=1): 1.09 (0)
- Fold difference NO/ONOO− (mean ± sd) (Intron 4 a/a, n=1): 1.23 (0)
- Fold difference ONOO− (mean ± sd) (Intron 4 a/a, n=1): 0.89 (0)
- Fold difference NO (mean ± sd) (Intron 4 a/a, n=3): 0.95 (0.25)
- Fold difference NO/ONOO− (mean ± sd) (Intron 4 a/a, n=3): 0.96 (0.45)
- Fold difference ONOO− (mean ± sd) (Intron 4 a/a, n=3): 1.10 (0.34)
- Fold difference NO (mean ± sd) (Intron 4 b/a, a/a, c/c, n=14): 1.13 (0.23)
- Fold difference NO/ONOO− (mean ± sd) (Intron 4 b/a, a/a, c/c, n=14): 1.28 (0.62)
- Fold difference ONOO− (mean ± sd) (Intron 4 b/a, a/a, c/c, n=14): 0.97 (0.30)
- Fold difference NO (mean ± sd) (Intron 4 b/a, n=10): 1.21 (0.28)
- Fold difference NO/ONOO− (mean ± sd) (Intron 4 b/a, n=10): 1.43 (0.65)
- Fold difference ONOO− (mean ± sd) (Intron 4 b/a, n=10): 0.93 (0.31)
- Fold difference NO (mean ± sd) (Intron 4 b/b, b/a, c/c, n=42): 0.95 (0.25)
- Fold difference NO/ONOO− (mean ± sd) (Intron 4 b/b, b/a, c/c, n=42): 1.42 (0.69)
- Fold difference ONOO− (mean ± sd) (Intron 4 b/b, b/a, c/c, n=42): 0.91 (0.27)
- Fold difference NO (mean ± sd) (Intron 4 b/b, n=31): 1.13 (0.23)
- Fold difference NO/ONOO− (mean ± sd) (Intron 4 b/b, n=31): 1.43 (0.71)
- Fold difference ONOO− (mean ± sd) (Intron 4 b/b, n=31): 0.90 (0.27)
- Fold difference NO (mean ± sd) (Intron 4 c/c, n=1): 0.73 (0)
- Fold difference NO/ONOO− (mean ± sd) (Intron 4 c/c, n=1): 0.74 (0)
- Fold difference ONOO− (mean ± sd) (Intron 4 c/c, n=1): 0.99 (0)
- Fold difference NO (mean ± sd) (T-786C C/C, n=1): 1.02 (0)
- Fold difference NO/ONOO− (mean ± sd) (T-786C C/C, n=1): 1.23 (0)
- Fold difference ONOO− (mean ± sd) (T-786C C/C, n=1): 0.83 (0)
- Fold difference NO (mean ± sd) (T-786C C/C, n=4): 1.02 (0.12)
- Fold difference NO/ONOO− (mean ± sd) (T-786C C/C, n=4): 1.03 (0.36)
